Data as given in ChEMBL document CHEMBL1135800, “Carbonic anhydrase inhibitors: anticonvulsant sulfonamides incorporating valproyl and other lipophilic moieties” (J Med Chem, 2002).

Key:
[1] = tested on: Mus musculus; test: Anticonvulsant activity in mice by MES test at 0.5 hr following intraperitoneal injection of 10 mg/kg dose.; type: functional
[2] = target: Carbonic anhydrase 1 (Homo sapiens, UniProt P00915)
Description: Inhibitory effect on human carbonic anhydrase I

[3] = target: T1, Carbonic anhydrase 4 (Bos taurus, UniProt Q95323)
T1 sequence (Q95323 whole entry): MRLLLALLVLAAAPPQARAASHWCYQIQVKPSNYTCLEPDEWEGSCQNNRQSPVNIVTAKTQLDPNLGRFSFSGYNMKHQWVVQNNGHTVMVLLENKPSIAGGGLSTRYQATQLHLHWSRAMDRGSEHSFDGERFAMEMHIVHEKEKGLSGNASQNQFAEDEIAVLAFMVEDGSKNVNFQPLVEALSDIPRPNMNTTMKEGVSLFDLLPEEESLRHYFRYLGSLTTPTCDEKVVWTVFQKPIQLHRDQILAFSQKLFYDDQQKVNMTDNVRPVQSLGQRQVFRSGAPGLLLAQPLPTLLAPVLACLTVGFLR
Description: Inhibitory effect on bovine Carbonic anhydrase IV

[4] = tested on: Mus musculus; test: Anticonvulsant activity in mice by MES test at 0.5 hr following intraperitoneal injection of 30 mg/kg dose; type: functional
[5] = tested on: Mus musculus; test: Anticonvulsant activity in mice by MES test at 3.0 hr following intraperitoneal injection of 10 mg/kg dose.; type: functional
[6] = target: Carbonic anhydrase 2 (Homo sapiens, UniProt P00918)
Description: Inhibitory effect on human Carbonic anhydrase II

[7] = tested on: Mus musculus; test: Anticonvulsant activity in mice by MES test at 3.0 hr following intraperitoneal injection of 30 mg/kg dose.; type: functional
[8] = tested on: Mus musculus; test: Anticonvulsant activity in mice by MES test at 0.5 h following intraperitoneal injection of 30 mg/kg dose.; type: functional
[9] = tested on: Mus musculus; test: Anticonvulsant activity in mice by MES test at 3.0 hr following intraperitoneal injection of 10 mg/kg dose; type: functional
[10] = Activity in MES test with six to eight OFI male mice for each time at 30 mg/kg dose at 3.0 h; type: functional, Mus musculus
[11] = species: Mus musculus; test: MES test: number of mice treated / total number of mice 4.0 h; type: functional
[12] = species: Mus musculus; test: MES test: number of mice treated / total number of mice at 1.0 h; type: functional
[13] = tested on: Mus musculus; test: Anticonvulsant activity in mice by MES test at 3.0 hr following intraperitoneal injection of 30 mg/kg dose; type: functional
[14] = species: Mus musculus; test: MES test: number of mice treated / total number of mice at 0.5 h; type: functional
[15] = species: Mus musculus; test: MES test: number of mice treated / total number of mice at 2.0 h; type: functional
[16] = Activity in MES test with six to eight OFI male mice for each time at 30 mg/kg dose at 2.0 h; type: functional, Mus musculus
[17] = species: Mus musculus; test: MES test: number of mice treated / total number of mice at 3.0 h; type: functional
[18] = Activity in MES test with six to eight OFI male mice for each time at 30 mg/kg dose at 1.0 h; type: functional, Mus musculus
[19] = Activity in MES test with six to eight OFI male mice for each time at 30 mg/kg dose at 0.5 h; type: functional, Mus musculus
[20] = Activity in MES test with six to eight OFI male mice for each time at 30 mg/kg dose at 4.0 h; type: functional, Mus musculus
[21] = species: Mus musculus; test: MES test: number of mice treated / total number of mice 6.0 h; type: functional
[22] = Activity in MES test with six to eight OFI male mice for each time at 30 mg/kg dose at 6.0 h; type: functional, Mus musculus
[23] = tested on: Mus musculus; test: Anticonvulsant activity in mice by MES test at 0.5 hr following intraperitoneal injection of 10 mg/kg dose; type: functional
[24] = tested on: Mus musculus; test: Anticonvulsant activity in mice by MES test at 3.0 h following intraperitoneal injection of 30 mg/kg dose; type: functional

Carbonic anhydrase 1, sequence (P00915 whole entry): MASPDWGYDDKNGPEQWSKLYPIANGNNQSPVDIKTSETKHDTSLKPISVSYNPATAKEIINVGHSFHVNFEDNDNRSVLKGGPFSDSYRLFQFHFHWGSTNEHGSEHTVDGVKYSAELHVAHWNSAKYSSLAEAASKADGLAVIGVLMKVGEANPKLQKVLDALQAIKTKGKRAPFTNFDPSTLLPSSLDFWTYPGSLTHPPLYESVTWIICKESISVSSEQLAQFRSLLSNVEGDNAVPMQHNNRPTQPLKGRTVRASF

Work on `Cc1ccc(S(=O)(=O)Nc2nnc(S(N)(=O)=O)s2)cc1` yielded a Protected mice [1] of 12%, a Ki [2] of 5 nM and a Ki [3] of 3 nM. It also gave a Protected mice [4] of 92%, a Protected mice [5] of 62% and a Ki [6] of 4 nM. The Protected mice [7] was 75%.
Work on `CCCC(CCC)C(=O)/N=c1/sc(S(N)(=O)=O)nn1C` yielded a Ki [2] of 70 nM, a Ki [3] of 42 nM and a Ki [6] of 10 nM.
`CCCC(CCC)C(=O)NCCc1ccc(S(N)(=O)=O)cc1` gave a Ki [2] of 3500 nM, a Ki [3] of 200 nM and a Ki [6] of 84 nM.
`CCCC(CCC)C(=O)Nc1cc(Cl)c(S(N)(=O)=O)cc1S(N)(=O)=O` gave a Ki [2] of 800 nM, a Ki [3] of 133 nM and a Ki [6] of 70 nM.
`CC(C)(C)OC(=O)Nc1nnc(S(N)(=O)=O)s1` gave a Ki [2] of 460 nM, a Protected mice [8] of 75% and a Ki [3] of 130 nM. It also gave a Ki [6] of 9 nM and a Protected mice [7] of 60%.
For `CC(C)(C)C(=O)Nc1nnc(S(N)(=O)=O)s1`, the Protected mice [1] was 44%, the Ki [2] was 110 nM and the Ki [3] was 46 nM. The Protected mice [4] was 75%, the Protected mice [5] was 87% and the Protected mice [7] was 100%.
With `CCCC(CCC)C(=O)OCCc1ccc(S(N)(=O)=O)cc1` the Ki [2] was 1300 nM, the Ki [3] was 313 nM and the Ki [6] was 844 nM.
In the case of `CCCC(CCC)C(=O)Nc1cccc(S(N)(=O)=O)c1`, the Ki [2] is reported as 19000 nM, the Ki [3] is reported as 740 nM and the Ki [6] is reported as 221 nM.
Molecule `CCCC(CCC)C(=O)NNc1ccc(S(N)(=O)=O)cc1` has a Ki [2] of 35600 nM, a Ki [3] of 950 nM and a Ki [6] of 300 nM.
In the case of `CCCC(CCC)C(=O)Nc1ccc(S(N)(=O)=O)cc1I`, the Ki [2] is reported as 550 nM, the Ki [3] is reported as 85 nM and the Ki [6] is reported as 43 nM.
`CCCC(CCC)C(=O)Nc1ccc(S(N)(=O)=O)cc1` gave a Ki [2] of 22500 nM, a Ki [3] of 630 nM and a Ki [6] of 240 nM.
For `CC(=O)/N=c1/sc(S(N)(=O)=O)nn1C` [METHAZOLAMIDE], the Protected mice [1] was 75%, the Protected mice [8] was 83% and the Protected mice [5] was 88%. The Protected mice [7] was 100%.
Work on `CCCC(CCC)C(=O)Nc1nnc(S(N)(=O)=O)s1` yielded a Protected mice [9] of 100%, a Ki [2] of 50 nM and a Protected mice [10] of 93%. For the same molecule, the No. of mice [11] was 4, the No. of mice [12] was 6.5 and the Ki [3] was 25 nM. The Protected mice [13] was 93%, the Protected mice [4] was 96% and the No. of mice [14] was 7.5. The No. of mice [15] was 8, the Protected mice [16] was 100% and the Ki [6] was 6 nM. The No. of mice [17] was 7, the Protected mice [18] was 81% and the Protected mice [19] was 96%. For the same molecule, the Protected mice [20] was 50%, the No. of mice [21] was 5 and the Protected mice [22] was 63%. For the same molecule, the Protected mice [23] was 25%.
`CC1(C)O[C@@H]2[C@@H](CO[C@@]3(COS(N)(=O)=O)OC(C)(C)O[C@@H]23)O1` [TOPIRAMATE] showed a Protected mice [9] of 50%, a Protected mice [24] of 83% and a Ki [3] of 54 nM. The Protected mice [4] was 100% and the Protected mice [23] was 62%.
`COc1cc(C(=O)Nc2nnc(S(N)(=O)=O)s2)cc(OC)c1OC` showed a Ki [2] of 900 nM, a Ki [3] of 51 nM and a Protected mice [4] of 25%. It also gave a Ki [6] of 10 nM and a Protected mice [7] of 67%.
In the case of `CCCC(CCC)C(=O)OCc1ccc(S(N)(=O)=O)cc1`, the Ki [2] is reported as 1500 nM, the Ki [3] is reported as 333 nM and the Ki [6] is reported as 115 nM.
In the case of `NS(=O)(=O)c1nnc(NS(=O)(=O)c2ccc(NC(=O)[C@@H]3C4C=CC(C4)C3C(=O)O)cc2)s1` (stereo partly drawn), the Ki [2] is reported as 5.5 nM, the Protected mice [8] is reported as 25% and the Ki [3] is reported as 4 nM. For the same molecule, the Ki [6] was 1.5 nM and the Protected mice [7] was 33%.
Molecule `CCCC(CCC)C(=O)NCCC(=O)Nc1nnc(S(N)(=O)=O)s1` has a Ki [2] of 360 nM, a Ki [3] of 76 nM and a Ki [6] of 9 nM.
`CCCC(CCC)C(=O)OCCOc1ccc2nc(S(N)(=O)=O)sc2c1` showed a Ki [2] of 50 nM, a Ki [3] of 13 nM and a Ki [6] of 7 nM.
`CCCC(CCC)C(=O)Nc1ccc(S(N)(=O)=O)cc1Cl` gave a Ki [2] of 950 nM, a Ki [3] of 125 nM and a Ki [6] of 50 nM.
In the case of `CCCC(CCC)C(=O)Nc1ccc2nc(S(N)(=O)=O)sc2c1`, the Ki [2] is reported as 62 nM, the Ki [3] is reported as 16 nM and the Ki [6] is reported as 7 nM.
`NS(=O)(=O)c1nnc(NC(=O)CCNS(=O)(=O)c2ccc(I)cc2)s1` showed a Ki [2] of 260 nM, a Protected mice [8] of 33% and a Ki [3] of 120 nM. It also gave a Protected mice [13] of 25% and a Ki [6] of 1.2 nM.
In the case of `CCCC(CCC)C(=O)Nc1ccc(S(N)(=O)=O)cc1F`, the Ki [2] is reported as 1000 nM, the Ki [3] is reported as 110 nM and the Ki [6] is reported as 45 nM.
In the case of `Cc1ccc(S(=O)(=O)NC(=O)Nc2nnc(S(N)(=O)=O)s2)cc1`, the Ki [2] is reported as 3 nM, the Protected mice [8] is reported as 8% and the Ki [3] is reported as 12 nM. For the same molecule, the Ki [6] was 4 nM and the Protected mice [7] was 33%.
With `CCCC(CCC)C(=O)Nc1c(S(N)(=O)=O)cc(S(N)(=O)=O)c(Cl)c1Cl` the Ki [2] was 970 nM, the Ki [3] was 155 nM and the Ki [6] was 26 nM.
With `NS(=O)(=O)c1nnc(NS(=O)(=O)Cc2ccccc2)s1` the Ki [2] was 7 nM, the Protected mice [8] was 67% and the Ki [3] was 6 nM. It also gave a Ki [6] of 5 nM and a Protected mice [7] of 38%.
For `CCCC(CCC)C(=O)Nc1ccccc1S(N)(=O)=O`, the Ki [2] was 23000 nM, the Ki [3] was 950 nM and the Ki [6] was 255 nM.
`CCCC(CCC)C(=O)Oc1ccc2nc(S(N)(=O)=O)sc2c1` showed a Ki [2] of 50 nM, a Ki [3] of 15 nM and a Ki [6] of 7 nM.
In the case of `CCCC(CCC)C(=O)NCc1ccc(S(N)(=O)=O)cc1`, the Ki [2] is reported as 3700 nM, the Ki [3] is reported as 210 nM and the Ki [6] is reported as 96 nM.
Work on `NS(=O)(=O)c1nnc(NC(=O)C23C[C@H]4C[C@@H](C2)C[C@@H](C3)C4)s1` yielded a Protected mice [1] of 25%, a Ki [2] of 850 nM and a Protected mice [8] of 83%. It also gave a Ki [3] of 65 nM, a Protected mice [5] of 93% and a Protected mice [7] of 96%.
With `NS(=O)(=O)c1nnc(NC(=O)c2ccccc2)s1` the Ki [2] was 38 nM, the Protected mice [8] was 83% and the Ki [3] was 21 nM. The Protected mice [7] was 25%.
In the case of `CCCC(CCC)C(=O)Nc1ccc(S(N)(=O)=O)cc1Br`, the Ki [2] is reported as 600 nM, the Ki [3] is reported as 49 nM and the Ki [6] is reported as 36 nM.
